For five compounds, EC50 results are on record in patent US9580463B2 (BRISTOL-MYERS SQUIBB COMPANY, priority 2013, dated 2017).

As usually defined, the EC50 is the concentration that produces a half-maximal response.

Like-named read-outs stand apart in the source and are kept apart here.

In experiment [1] the test system is HCV genotype 1a (H77 strain) replicon in HUH-7 cells. Put plainly: HCV replicon luciferase reporter assay, genotype 1a. The settings on record: Hepatitis C virus, 72 h, genotype 1a replicon, 3 days incubation. The experiment is classed as cell-based. Put shortly:
(§1)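 Twenty-point, threefold compound titrations (0.5% DMSO) were incubated 3 days at 37 °C with 3.0×10^3 HUH-7 cells/well in 4% FCS. The cells stably carried luciferase replicons: genotype 1b Con1 (S1179I) or 1a H77 (NS3 P1496L, NS5A S2204I). Renilla signal was read after 2 h with 7.5 μM EnduRen, and EC50 was taken from a four-parameter logistic fit. Cytotoxicity (CC50) was measured by Cell Titer-Blue, 8 h.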

Experiment [2] deals with HCV genotype 1b (Con1) replicon in HUH-7 cells. Put plainly: HCV replicon luciferase reporter assay, genotype 1b. The experiment is classed as cell-based. The conditions noted are these: Hepatitis C virus, 72 h, genotype 1b replicon, 3 days incubation. Put shortly: as §1

In the case of `COC[C@@H]1CCCC/C=C\[C@@H]2C[C@@]2(C(=O)NS(=O)(=O)C2CC2)NC(=O)[C@@H]2C[C@@H](Oc3nccc4cc(OC)c(F)cc34)CN2C(=O)[C@H]1NC(=O)OC(C)(C)C(F)(F)F` [Compound 1023], the EC50 in experiment [1] (read-out: LE_1a (EC50, range)) lay in the range of 1.01 to 5 nM; in experiment [2] (read-out: LE_1b (EC50, range)), 0.1 to 0.5 nM.
In the case of `COC[C@@H]1C[C@@H](C)CC/C=C\[C@@H]2C[C@@]2(C(=O)NS(=O)(=O)C2(CF)CC2)NC(=O)[C@@H]2C[C@@H](Oc3nc4cc(OC)ccc4nc3C(C)C)CN2C(=O)[C@H]1NC(=O)OC(C)(C)C(F)(F)F` [Compound 1040, 1,1,1-trifluoro-2-methylpropan-2-yl ((2R,6S,7R,9S,13aS,14aR,16aS,Z)-14a-(((1-(fluoromethyl)cyclopropyl)sulfonyl)carbamoyl)-2-((3-isopropyl-7-methoxyquinoxalin-2-yl)oxy)-7-(methoxymethyl)-9-methyl-5,16-dioxo-1,2,3,5,6,7,8,9,10,11,13a,14,14a,15,16,16a-hexadecahydrocyclopropa[e]pyrrolo[1,2-a][1,4]diazacyclopentadecin-6-yl)carbamate], the EC50 in experiment [1] (read-out: LE_1a (EC50, range)) lay in the range of 35 to 620 nM; in experiment [2] (read-out: LE_1b (EC50, range)), 35 to 620 nM.
Consider `COC[C@@H]1C[C@@H](C)CC/C=C\[C@@H]2C[C@@]2(C(=O)NS(=O)(=O)C2(CF)CC2)NC(=O)[C@@H]2C[C@@H](Oc3nc4cc(OC)ccc4nc3C(F)(F)F)CN2C(=O)[C@H]1NC(=O)OC(C)(C)C(F)(F)F` [Compound 1038, 1,1,1-trifluoro-2-methylpropan-2-yl ((2R,6S,7R,9S,13aS,14aR,16aS,Z)-14a-(((1-(fluoromethyl)cyclopropyl)sulfonyl)carbamoyl)-2-((7-methoxy-3-(trifluoromethyl)quinoxalin-2-yl)oxy)-7-(methoxymethyl)-9-methyl-5,16-dioxo-1,2,3,5,6,7,8,9,10,11,13a,14,14a,15,16,16a-hexadecahydrocyclopropa[e]pyrrolo[1,2-a][1,4]diazacyclopentadecin-6-yl)carbamate], for which the EC50 in experiment [1] (read-out: LE_1a (EC50)) is 35 nM; in experiment [1] (read-out: LE_1a (EC50, range)), 35 to 620 nM; in experiment [2] (read-out: LE_1b (EC50)), 14.7 nM; in experiment [2] (read-out: LE_1b (EC50, range)) it was 5.01 to 35 nM.
On to `COC[C@@H]1C[C@@H](C)CC/C=C\[C@@H]2C[C@@]2(C(=O)NS(=O)(=O)C2(C)CC2)NC(=O)[C@@H]2C[C@@H](Oc3nccc4cc(OC)ccc34)CN2C(=O)[C@H]1NC(=O)OC(C)(C)C(F)(F)F` [Compound 1015, 1,1,1-trifluoro-2-methylpropan-2-yl ((2R,6S,7R,9S,13aS,14aR,16aS,Z)-2-((6-methoxyisoquinolin-1-yl)oxy)-7-(methoxymethyl)-9-methyl-14a-(((1-methylcyclopropyl)sulfonyl)carbamoyl)-5,16-dioxo-1,2,3,5,6,7,8,9,10,11,13a,14,14a,15,16,16a-hexadecahydrocyclopropa[e]pyrrolo[1,2-a][1,4]diazacyclopentadecin-6-yl)carbamate], for which the EC50 lay in the range of 1.01 to 5 nM in experiment [1] (read-out: LE_1a (EC50, range)) and 1.01 to 5 nM in experiment [2] (read-out: LE_1b (EC50, range)).
In the case of `COC[C@@H]1C[C@@H](C)CC/C=C\[C@@H]2C[C@@]2(C(=O)NS(=O)(=O)C2(C)CC2)NC(=O)[C@@H]2C[C@@H](Oc3nc4cc(OC)ccc4nc3C(C)C)CN2C(=O)[C@H]1NC(=O)OC(C)(C)C(F)(F)F` [Compound 1033, 1,1,1-trifluoro-2-methylpropan-2-yl ((2R,6S,7R,9S,13aS,14aR,16aS,Z)-2-((3-isopropyl-7-methoxyquinoxalin-2-yl)oxy)-7-(methoxymethyl)-9-methyl-14a-(((1-methylcyclopropyl)sulfonyl)carbamoyl)-5,16-dioxo-1,2,3,5,6,7,8,9,10,11,13a,14,14a,15,16,16a-hexadecahydrocyclopropa[e]pyrrolo[1,2-a][1,4]diazacyclopentadecin-6-yl)carbamate], the EC50 in experiment [1] (read-out: LE_1a (EC50, range)) was in the range of 5.01 to 35 nM; in experiment [2] (read-out: LE_1b (EC50, range)) it was 1.01 to 5 nM.
